# In US20100035868A1, “METHODS OF TREATMENT OF UTERINE PATHOLOGICAL CONDITIONS” (MEDICAL RESEARCH COUNCIL, priority 2001, published 2010):
# Read-outs that look alike come from different tables or passages of the source.
# Assays:
# COX-2 = target: T1, COX-2 (Homo sapiens, UniProt P35354); conditions: cited from earlier work
# T1 sequence (P35354 18-604): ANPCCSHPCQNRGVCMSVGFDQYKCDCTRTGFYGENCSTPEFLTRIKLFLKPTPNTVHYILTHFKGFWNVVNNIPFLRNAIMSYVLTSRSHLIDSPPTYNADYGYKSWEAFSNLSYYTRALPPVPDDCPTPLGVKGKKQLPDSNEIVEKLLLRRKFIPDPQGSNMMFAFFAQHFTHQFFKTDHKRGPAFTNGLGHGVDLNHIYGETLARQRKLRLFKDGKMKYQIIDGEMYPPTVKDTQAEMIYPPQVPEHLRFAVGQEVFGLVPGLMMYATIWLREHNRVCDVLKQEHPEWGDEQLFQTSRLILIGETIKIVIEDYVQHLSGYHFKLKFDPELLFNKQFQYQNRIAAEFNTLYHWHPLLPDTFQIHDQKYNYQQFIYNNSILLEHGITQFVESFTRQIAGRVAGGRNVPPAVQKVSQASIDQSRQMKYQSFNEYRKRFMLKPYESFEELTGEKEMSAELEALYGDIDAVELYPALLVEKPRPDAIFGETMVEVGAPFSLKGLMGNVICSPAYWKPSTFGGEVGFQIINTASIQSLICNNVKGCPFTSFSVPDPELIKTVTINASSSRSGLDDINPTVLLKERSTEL
# EP2/EP4 receptors [1] = assay: cAMP generation in cultured normal secretory phase endometrium after PGE2 stimulation; assay type: cell-based, human; conditions: normal secretory phase endometrium (n=6), 300 nM PGE2 for 5 min, IBMX 1 mM; treated/untreated
# Experimental: (§1) In vitro culture and cAMP measurement. Endometrial tumour tissue (n=6; two well, two moderately and two poorly differentiated adenocarcinomas) and normal secretory phase endometrium (n=6) were minced finely with scissors and incubated in 2 ml RPMI (Sigma) medium containing 10% fetal calf serum, 0.3 mg/ml L-glutamine, 100 IU penicillin, 100 μg streptomycin and 3 μg/ml indomethacin, for 1.5 hrs at 37C in humidified 5% CO2. Thereafter samples were incubated in the same medium containing IBMX (Sigma) to a final concentration of 1 mM for 30 min at 37C and then stimulated for 5 min with 300 nM PGE2. Control treatments received no PGE2. Tissue was harvested by centrifugation at 2000 g. The supernatant was discarded and the tissue homogenised in 0.1 M HCl. cAMP concentration was quantified by ELISA using a cAMP kit (Biomol; Affiniti, Exeter, UK) and normalised to protein concentration of the homogenate. Protein concentrations were determined using protein assay kits (Bio-Rad, Hemel Hempstead, UK). The data are presented as fold induction of cAMP following treatment with PGE2. Fold induction was calculated by dividing cAMP values for the PGE2-treated samples by the value for the untreated sample.
# EP2/EP4 receptors [2] = assay: cAMP generation in cultured endometrial adenocarcinoma tissue after PGE2 stimulation; assay type: cell-based, human; conditions: endometrial adenocarcinoma tissue (n=6), 300 nM PGE2 for 5 min, IBMX 1 mM; treated/untreated
# Experimental: as §1
structure (smiles),measurement,setting,value
"CS(=O)(=O)Nc1ccc([N+](=O)[O-])cc1Oc1ccccc1 [Nimesulide, N-(4-nitro-2-phenoxyphenyl)methane sulfonamide]",more specific for COX-2 inhibition than for COX-1 inhibition,COX-2,100 fold
CS(=O)(=O)Nc1cc2c(cc1Sc1ccc(F)cc1F)C(=O)CC2 [L 475 L337],more specific for COX-2 inhibition than for COX-1 inhibition,COX-2; COX-2 versus COX-1,500 fold
"CCCCC[C@H](O)/C=C/[C@H]1[C@H](O)CC(=O)[C@@H]1C/C=C\CCCC(=O)O [PGE2, prostaglandin E2]",fold induction of cAMP generation in response to PGE2,EP2/EP4 receptors [1],1.15±0.05
same,fold induction of cAMP generation in response to PGE2,EP2/EP4 receptors [2],3.42±0.46
